Among the data in patent US20240140957A1, “BRIDGED COMPOUNDS AS KRAS G12D INHIBITOR AND DEGRADER AND THE USE THEREOF” (BeiGene Switzerland GmbH, priority 2021, published 2024) are IC50 values, retold here.

Some results are limits rather than exact numbers.

In the assay the target is GDP-loaded KRAS G12D (Homo sapiens, UniProt P01116, G12D). The experiment in a line: KRAS G12D Probe Displacement Assay. Conditions: KRAS G12D 0.5 nM, biotinylated probe 2 4 nM; Table 6 letters; read-out: KRAS G12D Probe Displacement Assay IC50 (class). It counts as binding.
GDP-loaded KRAS G12D, sequence (P01116 1-188 isoform P01116-2 G12D): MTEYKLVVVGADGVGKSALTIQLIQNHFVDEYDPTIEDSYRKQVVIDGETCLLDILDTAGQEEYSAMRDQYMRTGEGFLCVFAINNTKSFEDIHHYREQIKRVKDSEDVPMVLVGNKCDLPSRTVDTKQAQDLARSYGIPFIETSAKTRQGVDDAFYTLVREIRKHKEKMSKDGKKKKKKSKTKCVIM
The IC50 is the midpoint of a concentration-inhibition curve. With `Cc1cc(N)nc(-c2c(Cl)cc3c(N4CC5CCC(C4)N5)nc(OCC4(C#N)CCOCC4)nc3c2F)c1C(F)(F)F` [Example E195, 4-(((7-(6-amino-4-methyl-3-(trifluoromethyl)pyridin-2-yl)-4-(3,8-diazabicyclo[3.2.1]octan-3-yl)-6-chloro-8-fluoroquinazolin-2-yl)oxy)methyl)tetrahydro-2H-pyran-4-carbonitrile], the IC50 is less than 50 nM.
For the compound `Cc1cc(N)nc(-c2c(Cl)cc3c(N4CC5CCC(C4)N5)nc(OCC4(CO)CCOCC4)nc3c2F)c1C(F)(F)F` [Example E196, (4-(((7-(6-amino-4-methyl-3-(trifluoromethyl)pyridin-2-yl)-4-(3,8-diazabicyclo[3.2.1]octan-3-yl)-6-chloro-8-fluoroquinazolin-2-yl)oxy)methyl)tetrahydro-2H-pyran-4-yl)methanol], the IC50 was less than 50 nM.
The figure for `Cc1cc(N)nc(-c2c(Cl)cc3c(N4CC5CCC(C4)N5)nc(OCC4(CO)CC4)nc3c2F)c1C(F)(F)F` [Example E197, (1-(((7-(6-amino-4-methyl-3-(trifluoromethyl)pyridin-2-yl)-4-(3,8-diazabicyclo[3.2.1]octan-3-yl)-6-chloro-8-fluoroquinazolin-2-yl)oxy)methyl)cyclopropyl) methanol] is less than 50 nM; for `Cc1cc(N)nc(-c2c(Cl)cc3c(N4CC5CCC(C4)N5)nc(OCC4(CO)CCCC4)nc3c2F)c1C(F)(F)F` [Example E198, (1-(((7-(6-amino-4-methyl-3-(trifluoromethyl)pyridin-2-yl)-4-(3,8-diazabicyclo[3.2.1]octan-3-yl)-6-chloro-8-fluoroquinazolin-2-yl)oxy)methyl)cyclopentyl) methanol] it is 50 to 100 nM.
Regarding `Cc1cc(N)nc(-c2c(Cl)cc3c(N4CC5CCC(C4)N5)nc(OCC4(C#N)CCCC4)nc3c2F)c1C(F)(F)F` [Example E199, 1-(((7-(6-amino-4-methyl-3-(trifluoromethyl)pyridin-2-yl)-4-(3,8-diazabicyclo[3.2.1]octan-3-yl)-6-chloro-8-fluoroquinazolin-2-yl)oxy)methyl)cyclopentane-1-carbonitrile], the IC50 was 50 to 100 nM.
For `Cc1cc(N)nc(-c2c(Cl)cc3c(N4CC5CCC(C4)N5)nc(OCC4(CO)CCC4)nc3c2F)c1C(F)(F)F` [Example E200, (1-(((7-(6-amino-4-methyl-3-(trifluoromethyl)pyridin-2-yl)-4-(3,8-diazabicyclo[3.2.1]octan-3-yl)-6-chloro-8-fluoroquinazolin-2-yl)oxy)methyl)cyclobutyl) methanol], the IC50 was less than 50 nM.
To `Cc1cc(N)nc(-c2c(Cl)cc3c(N4CC5CCC(C4)N5)nc(OCC4(C)CCCOC4)nc3c2F)c1C(F)(F)F` (stereo not drawn) [Example E201, 6-(4-(3,8-diazabicyclo[3.2.1]octan-3-yl)-6-chloro-8-fluoro-2-((3-methyltetrahydro-2H-pyran-3-yl)methoxy)quinazolin-7-yl)-4-methyl-5-(trifluoromethyl)pyridin-2-amine] belongs 100 to 1000 nM; to `Cc1cc(N)nc(-c2c(Cl)cc3c(N4CC5CCC(C4)N5)nc(OCC4(C)CCOCC4)nc3c2F)c1C(F)(F)F` [Example E202, 6-(4-(3,8-diazabicyclo[3.2.1]octan-3-yl)-6-chloro-8-fluoro-2-((4-methyltetrahydro-2H-pyran-4-yl)methoxy)quinazolin-7-yl)-4-methyl-5-(trifluoromethyl)pyridin-2-amine], 50 to 100 nM.
As to `Cc1cc(N)nc(-c2c(Cl)cc3c(N4CC5CCC(C4)N5)nc(OCC4(C)CCOC4)nc3c2F)c1C(F)(F)F` (stereo not drawn) [Example E203, 6-(4-(3,8-diazabicyclo[3.2.1]octan-3-yl)-6-chloro-8-fluoro-2-((3-methyltetrahydrofuran-3-yl)methoxy)quinazolin-7-yl)-4-methyl-5-(trifluoromethyl)pyridin-2-amine], the IC50 fell in the range of 50 to 100 nM.
As for `COCC(C#N)(CO)COc1nc(N2CC3CCC(C2)N3)c2cc(Cl)c(-c3nc(N)cc(C)c3C(F)(F)F)c(F)c2n1` (stereo not drawn) [Example E204, 3-((7-(6-amino-4-methyl-3-(trifluoromethyl)pyridin-2-yl)-4-(3,8-diazabicyclo [3.2.1]octan-3-yl)-6-chloro-8-fluoroquinazolin-2-yl)oxy)-2-(hydroxymethyl)-2-(methoxymethyl)propanenitrile], the IC50 is less than 50 nM.
On to `Cc1cc(N)nc(-c2c(Cl)cc3c(N4CC5CCC(C4)N5)nc(OCC(C#N)(CO)CO)nc3c2F)c1C(F)(F)F` [Example E205, 3-((7-(6-amino-4-methyl-3-(trifluoromethyl)pyridin-2-yl)-4-(3,8-diazabicyclo [3.2.1]octan-3-yl)-6-chloro-8-fluoroquinazolin-2-yl)oxy)-2,2-bis(hydroxymethyl) propanenitrile], for which the IC50 was less than 50 nM.
For the compound `Cc1cc(N)nc(-c2c(Cl)cc3c(N4CC5CCC(C4)N5)nc(OCC4(C#N)CCOC4)nc3c2F)c1C(F)(F)F` (stereo not drawn) [Example E206, 3-(((7-(6-amino-4-methyl-3-(trifluoromethyl)pyridin-2-yl)-4-(3,8-diazabicyclo[3.2.1]octan-3-yl)-6-chloro-8-fluoroquinazolin-2-yl)oxy)methyl)tetrahydrofuran-3-carbonitrile], the IC50 is less than 50 nM.
The figure for `Cc1cc(N)nc(-c2c(Cl)cc3c(N4CC5CCC(C4)N5)nc(OCC4(C)CCC(=O)N4)nc3c2F)c1C(F)(F)F` (stereo not drawn) [Example E207, 5-(((7-(6-amino-4-methyl-3-(trifluoromethyl)pyridin-2-yl)-4-(3,8-diazabicyclo[3.2.1]octan-3-yl)-6-chloro-8-fluoroquinazolin-2-yl)oxy)methyl)-5-methylpyrrolidin-2-one] is less than 50 nM; for `Cc1cc(N)nc(-c2c(Cl)cc3c(N4CC5CCC(C4)N5)nc(OCC4(C)CNC(=O)C4)nc3c2F)c1C(F)(F)F` (stereo not drawn) [Example E208, 4-(((7-(6-amino-4-methyl-3-(trifluoromethyl)pyridin-2-yl)-4-(3,8-diazabicyclo[3.2.1]octan-3-yl)-6-chloro-8-fluoroquinazolin-2-yl)oxy)methyl)-4-methylpyrrolidin-2-one] it is less than 50 nM; for `Nc1nc2c(-c3c(C(F)(F)F)cc4c(N5CC6CCC(C5)N6)nc(OCC5COCC5O)nc4c3F)ccc(F)c2s1` (stereo not drawn) [Example E209, 4-(((7-(2-amino-7-fluorobenzo[d]thiazol-4-yl)-4-(3,8-diazabicyclo [3.2.1]octan-3-yl)-8-fluoro-6-(trifluoromethyl)quinazolin-2-yl)oxy)methyl)tetrahydrofuran-3-ol] it is less than 50 nM.
Take `Nc1nc2c(-c3c(C(F)(F)F)cc4c(N5CC6CCC(C5)N6)nc(OCC5C6COCC65)nc4c3F)ccc(F)c2s1` (stereo not drawn) [Example E210, 4-(2-((3-oxabicyclo[3.1.0]hexan-6-yl)methoxy)-4-(3,8-diazabicyclo[3.2.1]octan-3-yl)-8-fluoro-6-(trifluoromethyl)quinazolin-7-yl)-7-fluorobenzo[d]thiazol-2-amine]: the concentration for half-maximal inhibition (IC50) is less than 50 nM.
In the case of `N#CC1(COc2nc(N3CC4CCC(C3)N4)c3cc(C(F)(F)F)c(-c4ccc(F)c5sc(N)nc45)c(F)c3n2)CCOC1` (stereo not drawn) [Example E211, 3-(((7-(2-amino-7-fluorobenzo[d]thiazol-4-yl)-4-(3,8-diazabicyclo [3.2.1]octan-3-yl)-8-fluoro-6-(trifluoromethyl)quinazolin-2-yl)oxy)methyl)tetrahydrofuran-3-carbonitrile], the IC50 was less than 50 nM.
The figure for `CC1(COc2nc(N3CC4CCC(C3)N4)c3cc(C(F)(F)F)c(-c4ccc(F)c5sc(N)nc45)c(F)c3n2)CCC(=O)N1` (stereo not drawn) [Example E212, 5-(((7-(2-amino-7-fluorobenzo[d]thiazol-4-yl)-4-(3,8-diazabicyclo[3.2.1]octan-3-yl)-8-fluoro-6-(trifluoromethyl)quinazolin-2-yl)oxy)methyl)-5-methylpyrrolidin-2-one] is less than 50 nM; for `Nc1nc2c(-c3c(C(F)(F)F)cc4c(N5CC6CCC(C5)N6)nc(OCC5CCCCC5O)nc4c3F)ccc(F)c2s1` (stereo not drawn) [Example E213, 2-(((7-(2-amino-7-fluorobenzo[d]thiazol-4-yl)-4-(3,8-diazabicyclo[3.2.1]octan-3-yl)-8-fluoro-6-(trifluoromethyl)quinazolin-2-yl)oxy)methyl)cyclohexan-1-ol] it is less than 50 nM.
On to `N#CC1(COc2nc(N3CC4CCC(C3)N4)c3cc(C(F)(F)F)c(-c4ccc(F)c5sc(N)nc45)c(F)c3n2)CCC1` [Example E214, 1-(((7-(2-amino-7-fluorobenzo[d]thiazol-4-yl)-4-(3,8-diazabicyclo [3.2.1]octan-3-yl)-8-fluoro-6-(trifluoromethyl)quinazolin-2-yl)oxy)methyl)cyclobutane-1-carbonitrile], for which the IC50 was less than 50 nM.
As for `CC1(COc2nc(N3CC4CCC(C3)N4)c3cc(C(F)(F)F)c(-c4ccc(F)c5sc(N)nc45)c(F)c3n2)COCCO1` (stereo not drawn) [Example E215, 4-(4-(3,8-diazabicyclo[3.2.1]octan-3-yl)-8-fluoro-2-((2-methyl-1,4-dioxan-2-yl)methoxy)-6-(trifluoromethyl)quinazolin-7-yl)-7-fluorobenzo[d]thiazol-2-amine], the IC50 was less than 50 nM.
On to `Nc1nc2c(-c3c(C(F)(F)F)cc4c(N5CC6CCC(C5)N6)nc(OCC5CCCOC5)nc4c3F)ccc(F)c2s1` (stereo not drawn) [Example E216, 4-(4-(3,8-diazabicyclo[3.2.1]octan-3-yl)-8-fluoro-2-((tetrahydro-2H-pyran-3-yl)methoxy)-6-(trifluoromethyl)quinazolin-7-yl)-7-fluorobenzo[d]thiazol-2-amine], for which the concentration for half-maximal inhibition (IC50) was less than 50 nM.
Turning to `Nc1nc2c(-c3c(C(F)(F)F)cc4c(N5CC6CCC(C5)N6)nc(OCC56COCC5C6)nc4c3F)ccc(F)c2s1` (stereo not drawn) [Example E217, 4-(2-((3-oxabicyclo[3.1.0]hexan-1-yl)methoxy)-4-(3,8-diazabicyclo[3.2.1]octan-3-yl)-8-fluoro-6-(trifluoromethyl)quinazolin-7-yl)-7-fluorobenzo[d]thiazol-2-amine], the IC50 is less than 50 nM.
Turning to `Nc1nc2c(-c3c(C(F)(F)F)cc4c(N5CC6CCC(C5)N6)nc(OCC5(F)CCOCC5)nc4c3F)ccc(F)c2s1` [Example E218, 4-(4-(3,8-diazabicyclo[3.2.1]octan-3-yl)-8-fluoro-2-((4-fluorotetra hydro-2H-pyran-4-yl)methoxy)-6-(trifluoromethyl)quinazolin-7-yl)-7-fluorobenzo[d]thiazol-2-amine], the IC50 is less than 50 nM.
